The values below come from ChEMBL document CHEMBL4706628, “Ligand-based optimization to identify novel 2-aminobenzo[d]thiazole derivatives as potent sEH inhibitors with anti-inflammatory effects” (Eur J Med Chem, 2021).

pIC50, pKi: −log10 of the molar value. Values after ≈ are worked out from the molar mass of the structure shown.

A short description of data set [1]: Solubility of compound in pH 7.4 PBS buffer measured after 2 hrs by turbidimetric assay. Type of data set: physicochemical.
For data set [2], the target named is T1, Bifunctional epoxide hydrolase 2 (Homo sapiens) (UniProt P34913).
T1 sequence (whole entry): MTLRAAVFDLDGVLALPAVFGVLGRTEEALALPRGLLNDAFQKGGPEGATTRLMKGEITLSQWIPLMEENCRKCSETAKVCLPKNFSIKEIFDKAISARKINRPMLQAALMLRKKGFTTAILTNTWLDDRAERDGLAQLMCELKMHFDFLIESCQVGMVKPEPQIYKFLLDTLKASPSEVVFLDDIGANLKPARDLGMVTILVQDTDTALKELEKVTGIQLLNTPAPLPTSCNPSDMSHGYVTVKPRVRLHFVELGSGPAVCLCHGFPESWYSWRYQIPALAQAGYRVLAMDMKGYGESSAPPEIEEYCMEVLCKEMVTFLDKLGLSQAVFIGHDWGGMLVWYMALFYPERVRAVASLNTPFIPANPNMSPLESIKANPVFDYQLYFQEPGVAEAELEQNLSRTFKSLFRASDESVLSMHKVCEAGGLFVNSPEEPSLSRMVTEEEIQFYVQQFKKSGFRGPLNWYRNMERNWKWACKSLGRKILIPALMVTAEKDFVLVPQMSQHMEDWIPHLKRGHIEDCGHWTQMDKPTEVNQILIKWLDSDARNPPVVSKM
Kind of data set: Inhibition of recombinant human sEH at 100 nM using PHOME as substrate measured after 15 mins by fluorescence assay relative to control.

Data set [3] addresses T2, Bifunctional epoxide hydrolase 2 (Homo sapiens, UniProt P34913).
T2 sequence (P34913 whole entry): T1 sequence (whole entry)
Kind of data set: Inhibition of recombinant human sEH using PHOME as substrate measured after 15 mins by fluorescence assay.

For data set [4], the target named is T1, Bifunctional epoxide hydrolase 2 (Homo sapiens). Kind of data set: Potency index, ratio of t-AUCB IC50 to test compound IC50 for recombinant human sEH.
The target in data set [5] is T2, Bifunctional epoxide hydrolase 2. Kind of data set: Mixed-type inhibition of recombinant human sEH using PHOME as substrate measured after 15 mins by fluorescence based Lineweaver-burk plot analysis.
The target in data set [6] is T1, Bifunctional epoxide hydrolase 2 (Homo sapiens). Kind of data set: Mixed-type inhibition of recombinant human sEH assessed as inhibitor dissociation constant using PHOME as substrate measured after 15 mins by fluorescence based Lineweaver-burk plot analysis.
Another data set deals with HepG2. Kind of data set: Cytotoxicity against human HepG2 cells assessed as reduction in cell viability measured after 48 hrs by MTT assay. Format: cell-based. Particulars: HepG2, 48 h. A general note: Tetrazolium dyes change colour on reduction, which living cells bring about.
For data set [7], the system named is Mus musculus. Kind of data set: Antiinflammatory activity in BALB/c mouse model of carrageenan-induced paw edema assessed as paw thickness at 100 mg/kg, ip pretreated for 1 hr followed by carrageenan challenge and measured after 1 hr by caliper method (reference value: 3.51 +/- 0.19 millimeter). The note with it: time 2 hrs. Type of data set: functional.
The subject of data set [8] is Mus musculus. Kind of data set: Antiinflammatory activity in BALB/c mouse model of carrageenan-induced paw edema assessed as paw edema at 100 mg/kg, ip pretreated for 1 hr followed by carrageenan challenge and measured after 1 hr by caliper method relative to control. Type of data set: functional. The note with it: time 2 hrs. In general terms: The carrageenan paw model is a standard test of acute inflammation.

Data set [9] relates to Mus musculus. Kind of data set: Antiinflammatory activity in BALB/c mouse model of carrageenan-induced paw edema assessed as paw thickness at 100 mg/kg, ip pretreated for 1 hr followed by carrageenan challenge and measured after 2 hrs by caliper method (reference value: 3.56 +/- 0.29 millimeter). Format: functional. Particulars: time 3 hrs.
Data set [10] concerns Mus musculus. Kind of data set: Antiinflammatory activity in BALB/c mouse model of carrageenan-induced paw edema assessed as paw edema at 100 mg/kg, ip pretreated for 1 hr followed by carrageenan challenge and measured after 2 hrs by caliper method relative to control. Type of data set: functional. The note with it: time 3 hrs.
For data set [11], the system named is Mus musculus. Kind of data set: Antiinflammatory activity in BALB/c mouse model of carrageenan-induced paw edema assessed as paw thickness at 100 mg/kg, ip pretreated for 1 hr followed by carrageenan challenge and measured after 3 hrs by caliper method (reference value: 3.61 +/- 0.36 millimeter). Format: functional. The note with it: time 4 hrs.
Data set [12] deals with Mus musculus. Kind of data set: Antiinflammatory activity in BALB/c mouse model of carrageenan-induced paw edema assessed as paw edema at 100 mg/kg, ip pretreated for 1 hr followed by carrageenan challenge and measured after 3 hrs by caliper method relative to control. Type of data set: functional. Particulars: time 4 hrs.
For data set [13], the system named is Mus musculus. Kind of data set: Antiinflammatory activity in BALB/c mouse model of carrageenan-induced paw edema assessed as paw thickness at 100 mg/kg, ip pretreated for 1 hr followed by carrageenan challenge and measured after 4 hrs by caliper method (reference value: 3.60 +/- 0.12 millimeter). Type of data set: functional. The note with it: time 5 hrs.
In data set [14] the test system is Mus musculus. Kind of data set: Antiinflammatory activity in BALB/c mouse model of carrageenan-induced paw edema assessed as paw edema at 100 mg/kg, ip pretreated for 1 hr followed by carrageenan challenge and measured after 4 hrs by caliper method relative to control. Format: functional. The note with it: time 5 hrs.
Data set [15] is described as follows: in vitro. The note with it: Sprague-Dawley, rat, liver microsomes. On the technique in general: Liver microsomes are vesicles of endoplasmic reticulum, rich in cytochrome P450 enzymes.
Description: Half life in Sprague-Dawley rat liver microsomes at 10 uM measured up to 60 mins in presence of NADPH regenerating system by HPLC analysis
A short description of data set [16]: in vitro. The note with it: Sprague-Dawley, rat, liver microsomes. This is another data set of the same source.
Data set [17] in a line: in vitro. Particulars: Sprague-Dawley, rat, liver microsomes. This is another data set of the same source.
A short description of data set [18]: in vitro. The note with it: Sprague-Dawley, rat, liver microsomes. The source holds these as a separate data set.
Description: Stability in Sprague-Dawley rat liver microsomes assessed as parent compound remaining at 10 uM measured after 60 mins in presence of NADPH regenerating system by HPLC analysis
Data set [19] can be described thus: in vitro. The note with it: Sprague-Dawley, rat, liver microsomes. This is another data set of the same source.
Description: Stability in Sprague-Dawley rat liver microsomes assessed as parent compound remaining at 10 uM measured after 60 mins in absence of NADPH regenerating system by HPLC analysis

Usually kinetic solubility stands for solubility judged after dilution from a stock solution rather than from solid. Usually inhibition stands for the percentage by which the read-out fell short of the control. One may read the pIC50 as the negative decadic logarithm of the IC50, by convention in mol/L. Take `O=C(Nc1ccc(Cl)cc1)Nc1nc2ccc(N(CCN3CCOCC3)C(=O)Nc3ccc(Cl)cc3)cc2s1`: the kinetic solubility at 2 h in [1] was found to be 0.03 mg/mL (≈ 51.2 µM). For the same compound, the inhibition in [2] is 90.2%. The pIC50 in [3] was 10.00. In data set [4], the Ratio IC50 stood at 67.

For orientation: pKi means the Ki on a negative log10 scale, so that one unit is a factor of ten. As a reminder, the half-life is the time needed for the level to fall by half in the phase considered. A low value points to fast loss. By microsomal CLint is commonly meant the capacity of the preparation to metabolise the compound, expressed as a volume cleared per time. A lower microsomal CLint goes with greater metabolic stability. Consider `O=C(Cc1ccccc1)Nc1nc2ccc(N(CCN3CCOCC3)C(=O)Nc3ccc(Cl)cc3)cc2s1`, for which the kinetic solubility at 2 h in [1] was determined as 0.061 mg/mL (≈ 111 µM). In addition, the inhibition in data set [2] amounted to 84.7%. For the same compound, the pIC50 in data set [3] was 10.09; in the data set with HepG2, below 4.60. The pKi in [5] was 8.32. Besides, in [6], the Kdiss was 23.1 nM. Also, the Activity with Mus musculus [7] is on record as 3.33 mm; in the data set with Mus musculus [8], 21.56%; in the data set with Mus musculus [9], 3.22 mm; in the data set on Mus musculus [10] it was 17.58%; in the data set on Mus musculus [11], 3.19 mm; with Mus musculus [12], 16.48%. The Activity in the data set on Mus musculus [13] is 3.3 mm; in the data set on Mus musculus [14], 20.32%. This compound also yielded a half-life at 1 h, 10 µM in the data set “in vitro [15]” of 1.7 min. Further, the microsomal CLint at 1 h, 10 µM in “in vitro [16]” amounted to 820 µL/min/mg; in “in vitro [17]” it was 1480 µL/min/mg. The amount remaining at 1 h, 10 µM is 0% in “in vitro [18]” and 116% in the data set “in vitro [19]”.

Regarding `Nc1nc2ccc(N(CCN3CCOCC3)C(=O)Nc3ccc(F)c(Br)c3)cc2s1`, in data set [1], the solubility (kinetic) at 2 h is 0.068 mg/mL (≈ 138 µM). Further, the inhibition in data set [2] came to 90.5%. Also, the pIC50 with HepG2 is below 4.60. The Activity turned out to be 3.15 mm in the data set on Mus musculus [7]; 30.86% in the data set on Mus musculus [8]; 3.16 mm in the data set on Mus musculus [9]; 31.49% with Mus musculus [10]; 3.06 mm in the data set on Mus musculus [11]; 27.39% in the data set with Mus musculus [12]. Besides, the figures for the Activity in the data set on Mus musculus [13] and in the data set on Mus musculus [14] were 3.06 mm and 27.12%, respectively. The half-life at 1 h, 10 µM in “in vitro [15]” worked out at 44.7 min. Moreover, the microsomal CLint at 1 h, 10 µM came out at 31 µL/min/mg in “in vitro [16]” and 55.8 µL/min/mg in the data set “in vitro [17]”. For the same compound, the amount remaining at 1 h, 10 µM was 36.2% in “in vitro [18]” and 85% in the data set “in vitro [19]”.

Turning to `O=C(NC12CC3CC(CC(C3)C1)C2)N[C@H]1CC[C@H](Oc2ccc(C(=O)O)cc2)CC1`, the Activity in the data set on Mus musculus [7] turned out to be 3.3 mm; in the data set with Mus musculus [8], 25.01%; with Mus musculus [9] it was 3.23 mm; in the data set with Mus musculus [10] it was 22.61%; in the data set on Mus musculus [11], 3.29 mm; in the data set with Mus musculus [12], 24.98%. The Activity in the data set on Mus musculus [13] is reported as 3.28 mm; in the data set on Mus musculus [14], 24.71%.

In the case of `Nc1nc2ccc(N(CCN3CCOCC3)C(=O)Nc3ccc(Cl)cc3)cc2s1`, the solubility (kinetic) at 2 h in [1] is 0.039 mg/mL (≈ 90.3 µM). The inhibition in [2] was 89.1%. Further, the pIC50 in data set [3] is 8.55; with HepG2, below 4.60. Also, the Activity in the data set with Mus musculus [7] was found to be 3.11 mm; in the data set on Mus musculus [8] it was 20.99%; in the data set with Mus musculus [9] it was 3.06 mm; in the data set with Mus musculus [10], 19.06%; in the data set with Mus musculus [11], 3.13 mm; in the data set with Mus musculus [12] it was 21.64%. Further, the Activity in the data set with Mus musculus [13] is given as 3.17 mm; in the data set with Mus musculus [14], 23.39%. Also, the half-life at 1 h, 10 µM in “in vitro [15]” turned out to be 34.7 min. The figures for the microsomal CLint at 1 h, 10 µM in the data set “in vitro [16]” and in the data set “in vitro [17]” were 40 µL/min/mg and 71.9 µL/min/mg, respectively. Moreover, the fraction remaining at 1 h, 10 µM in the data set “in vitro [18]” turned out to be 30.1%; in the data set “in vitro [19]” it was 99.5%.
